ChEMBL document CHEMBL1151602, “Synthesis and bioactivity of new antineoplastic terpenylquinones” (Bioorg Med Chem Lett, 1996)

What was measured:
Type in all cases: functional, cell-based
[1] = test system: A549; assay: Cytotoxicity was measured against neoplastic cultured A-549 cells of human lung carcinoma.
[2] = test system: P388; assay: Cytotoxicity was measured against neoplastic cultured P-388 cells of murine leukemia.; settings: Mus musculus
[3] = test system: HT-29; assay: Cytotoxicity was measured against neoplastic cultured HT-29 cells of human colon carcinoma.
[4] = test system: SK-MEL-28; assay: Cytotoxicity was measured against neoplastic cultured MEL-28 cells of malign human melanoma.

Row | Structure (SMILES) | IC50 [1] [µM] | IC50 [2] [µM] | IC50 [3] [µM] | IC50 [4] [µM]
1 | CC(C)=CCCC1=CCC2C(=O)c3ccccc3C(=O)C2C1 (stereo not given) | 8.5 | 8.5 | > 34 | > 34
2 | CC1=CCC[C@H]2[C@](C)(CC3=CC(=O)C=CC3=O)[C@@H](C)CC[C@]12C [AVARONE] | 6 | 3.1 | 6 | 6
3 | CC(=O)Oc1cc(C)c(OC(C)=O)c2cc(CCC=C(C)C)ccc12 | 1.5 | 2.9 | 7.3 | 3.5
4 | CC(C)=CCCc1ccc2c(c1)C(=O)C(C)=CC2=O | 3.9 | 3.9 | 19.6 | 9.8
5 | CC(C)=CCCC1=CCC2=C(C1)C(=O)C(C)=CC2=O | 3.9 | 3.9 | 19.5 | 9.8
6 | O=C1C=CC(=O)c2ccccc21 [NAPHTHOQUINONE] | > 63.2 | > 63.2 | > 63.2 | > 63.2
7 | CC(C)=CCCC1=CCC2=C(C1)C(=O)c1ccccc1C2=O | 17 | 17 | > 34 | > 34
8 | CC1=CCC[C@H]2[C@](C)(Cc3cc(O)ccc3O)[C@@H](C)CC[C@]12C [AVAROL] | 6 | 3.1 | 6 | 6
9 | O=C1C=CC(=O)C=C1 [BENZOQUINONE] | 46.2 | 11.1 | 46.2 | 46.2
10 | CC(C)=CCCC1=CCc2c(O)ccc(O)c2C1 | 4.9 | 2.1 | 4.9 | 4.9
11 | CC(C)=CCCC1=CCC2=C(C1)C(=O)C=CC2=O | 2.1 | 1 | 2.1 | 2.1
12 | CC(C)=CCCc1ccc2c(c1)C(=O)C=CC2=O | 1 | 0.4 | 1 | 0.4
13 | CC(=O)Oc1ccc(OC(C)=O)c2c1CC=C(CCC=C(C)C)C2 | 3.6 | 1.5 | 3.6 | 3.6
14 | CC(=O)Oc1cc(C)c(OC(C)=O)c2c1CC=C(CCC=C(C)C)C2 | 2.9 | 2.9 | 14.6 | 14.6
15 | CC(C)=CCCC1=CCc2c(O)cc(C)c(O)c2C1 | 3.8 | 3.8 | 19.4 | 19.4
